Test results taken from patent publication US5349127A, “Expression of herbicide metabolizing cytochromes P450” (priority 1992, dated 1994).

Tests used:
S. griseolus ATCC11796 = experiment: Percent conversion of non-sulfonylurea herbicides (Example 29); assay type: in vitro ADME, Streptomyces griseolus; conditions: 3.0 mg herbicide in 25 ml broth; 18 hours
Method: (§1) This experiment was performed as in Example 17 with the following changes. Separate cultures (50 ml) inoculated with S. lividans C37, S. lividans transformed with pCAO200SU1-FeS-B#9, or S. griseolus ATCC11796 were cultured in sporulation broth for 18 hours at 30° C. with shaking. Each culture was then resuspended in 25 ml fresh sporulation broth and 3.0 mg herbicide added. Each culture was reincubated for 18 hours, then an aliquot of the medium was withdrawn and analyzed by HPLC. The percent conversion of herbicide was determined.

S. lividans C37 = experiment: as above; assay type: in vitro ADME, Streptomyces lividans; conditions: 3.0 mg herbicide in 25 ml broth; 18 hours
Method: as §1

[1] = system: S. lividans pCAO200SU1-FeS-B#9; experiment: as above; assay type: in vitro ADME, Streptomyces lividans; conditions: for Percent Conversion: 3.0 mg herbicide in 25 ml broth, 18 hours; for metabolism by bacteria containing constitutively expressed P450SU1: summary of Table 29
Method: as §1

[2] = Incubation buffer without cells, time 0 (Examples 5-9, 11, 12); assay type: in vitro ADME; conditions: no cells; substrate 10006; 0 h
Method: (§2) A 100 ml culture of S. griseolus ATCC 11796 in sporulation broth and a 50 ml culture of S. lividans transformed with pCAO400 in YEME broth were prepared and incubated for 24 hours as described. At that time, the S. griseolus culture was split into two 50 ml aliquots into two separate flasks and 25 ml of fresh sporulation broth was added to each and 9 mg of […] was added to one of these cultures to induce cytochrome P450SU1 expression. Fresh YEME broth (25 ml) was added to the S. lividans culture. After an additional 6 hours growth at 30° C., the cells in each culture were harvested as described above, washed twice with MOPS (50 mM, pH 7.2) and recentrifuged. The cell pellets were resuspended in four cell volumes of MOPS (50 mM, pH 7.2) containing 0.2% glucose and about 100 μg/ml of 10004. These cell suspensions were incubated at 30° C. with shaking and aliqouts were taken at 2 and 5.5 hours. The supernatant of each aliquot was analyzed by HPLC and the concentrations of the sulfonylurea compound 10004 and its metabolite 10005 were determined.
(§3) S. lividans transformed respectively with pCAO200SU1-FeS-B#9, pCAO200SU#112and pCAO200 were cultured for 36 hours in 400 ml of YEME broth at 30° C. S. griseolus ATCC 11796 was similarly cultured in 400 ml of sporulation broth. Six hours before harvesting the cells, 150 ml of fresh YEME broth was added to the S. lividans cells, and the S. griseolus cells were split into two 200 ml cultures with 100 ml of fresh sporulation broth added to each. 10001 (36 mg) was added to one of the two S. griseolus cultures to induce cytochrome P450SU1. The cells were prepared as described above in Example 5 and the concentrations of the sulfonylurea compound 10006 and its metabolites 10007, 10008 or 10009 were determined.
S. lividans transformed with pCAO200SU2-FeS-A#11 and S. lividans transformed with pCAO200 were cultured for 36 hours in 400 ml of YEME broth at 30° C. S. griseolus PH2001 (mutant without SU1) was cultured in 400 ml of sporulation broth at 30° C. Nine hours before harvesting the cells, the S. griseolus PH2001 culture was divided into two 200 ml cultures. Both received 100 ml of fresh sporulation broth and one received 36 mg of 10001 to induce cytochrome P450SU2. The cells were prepared as described above in Example 6 and the concentrations of the sulfonylurea compound 10001 and its metabolites 10002 and 10003 were determined.

[3] = system: S. griseolus ATCC 11796 induced with 10001; experiment: Sulfonylurea metabolism by washed cell suspension (Examples 5-9); assay type: in vitro ADME, Streptomyces griseolus; conditions: substrate 10006
Method: (§4) Herbicides and their metabolites are measured by HPLC as described by Romesser et al., BBRC 140: 650-659 (1986), herein incorporated by reference, except that 0.1% H3 PO4 is used in both solvents. Chromatographic identity and quantitation of the herbicides and their resulting metabolites is determined by comparing them chromatographically with authentic standard compounds. Identity of the resulting metabolites is also confirmed by UV spectroscopy.
as §2, §3

[4] = system: S. griseolus ATCC 11796 uninduced; experiment: as above; assay type: in vitro ADME, Streptomyces griseolus; conditions: substrate 10006
Method: as §4, §2, §3

[5] = system: S. lividans pCAO200SU1-FeS-B#9; experiment: Sulfonylurea metabolism by washed cell suspension (Examples 6-9); assay type: in vitro ADME, Streptomyces lividans; conditions: substrate 10006
[6] = system: S. lividans pCAO200SU1#12; experiment: as above; assay type: in vitro ADME, Streptomyces lividans; conditions: substrate 10006
S. lividans pCAO200 = experiment: as above; assay type: in vitro ADME, Streptomyces lividans; conditions: substrate 10006

Structure (SMILES): CC(C)C1(C)N=C(c2nc3ccccc3cc2C(=O)O)NC1=O (stereo not drawn) [compound 10035, 2-[4,5-dihydro-4-methyl-4-(1-methylethyl)-5-oxo-1H-imidazol-2-yl]-3-quinolinecarboxylic acid]
- Percent Conversion (S. griseolus ATCC11796): 21%
- Percent Conversion (S. lividans C37): 22%
- Percent Conversion [1]: 96%
- metabolism by bacteria containing constitutively expressed P450SU1 [1]: metabolized

Structure (SMILES): CCc1cnc(C2=NC(C)(C(C)C)C(=O)N2)c(C(=O)O)c1 (stereo not drawn) [compound 10034]
- Percent Conversion (S. griseolus ATCC11796): 13%
- Percent Conversion (S. lividans C37): 10%
- Percent Conversion [1]: 69%
- metabolism by bacteria containing constitutively expressed P450SU1 [1]: metabolized

Structure (SMILES): COC(=O)c1ccccc1S(=O)(=O)NC(=O)Nc1nc(C)nc(OC)n1 [compound 10006, N-[(4-methoxy-6-methyl-1,3,5-triazinyl)aminocarbonyl]-2-methoxycarbonylbenzenesulfonamide]
- concentration in supernatant [2]: 362 µM
- concentration in supernatant ([3]; 2 h): 369 µM
- concentration in supernatant ([3]; 4 h): 357 µM
- concentration in supernatant ([3]; 6 h): 355 µM
- concentration in supernatant ([4]; 2 h): 404 µM
- concentration in supernatant ([4]; 4 h): 394 µM
- concentration in supernatant ([4]; 6 h): 405 µM
- concentration in supernatant ([5]; 2 h): 326 µM
- concentration in supernatant ([5]; 4 h): 267 µM
- concentration in supernatant ([5]; 6 h): 232 µM
- concentration in supernatant ([6]; 2 h): 376 µM
- concentration in supernatant ([6]; 4 h): 384 µM
- concentration in supernatant ([6]; 6 h): 386 µM
- concentration in supernatant (S. lividans pCAO200; 2 h): 381 µM
- concentration in supernatant (S. lividans pCAO200; 4 h): 377 µM
- concentration in supernatant (S. lividans pCAO200; 6 h): 375 µM
